Consider 29 molecules from patent publication US10988478B1, “Pyrazolo[1,5a]pyrimidine derivatives as IRAK4 modulators” (Genentech, Inc., priority 2015, dated 2021).

For the assay, the target named is human IRAK4 (Homo sapiens (Human), UniProt Q9NWZ3). Put plainly: IRAK4 kinase inhibition, Transcreener fluorescence polarization ADP assay. The note with it: recombinant full-length His6-IRAK4; 125 uM ATP; 90 min; Ki computed using ATP Km 642 uM. The assay is classed as biochemical. Here is the method: Compounds were assayed for inhibition of human IRAK4 and IRAK1 catalytic activity using recombinant enzyme produced from insect cells. Full-length IRAK4 protein, carrying an N-terminal His6-Tag, was obtained from Life Technologies (Carlsbad, Calif., USA). The IRAK1 construct was produced internally and was comprised of IRAK1 residues Arg194 to Ser712, preceded by an NH2-terminal His6 tag and the coding sequence for glutathione-S-transferase.
human IRAK4, sequence (Q9NWZ3 whole entry, the tested form may be a part): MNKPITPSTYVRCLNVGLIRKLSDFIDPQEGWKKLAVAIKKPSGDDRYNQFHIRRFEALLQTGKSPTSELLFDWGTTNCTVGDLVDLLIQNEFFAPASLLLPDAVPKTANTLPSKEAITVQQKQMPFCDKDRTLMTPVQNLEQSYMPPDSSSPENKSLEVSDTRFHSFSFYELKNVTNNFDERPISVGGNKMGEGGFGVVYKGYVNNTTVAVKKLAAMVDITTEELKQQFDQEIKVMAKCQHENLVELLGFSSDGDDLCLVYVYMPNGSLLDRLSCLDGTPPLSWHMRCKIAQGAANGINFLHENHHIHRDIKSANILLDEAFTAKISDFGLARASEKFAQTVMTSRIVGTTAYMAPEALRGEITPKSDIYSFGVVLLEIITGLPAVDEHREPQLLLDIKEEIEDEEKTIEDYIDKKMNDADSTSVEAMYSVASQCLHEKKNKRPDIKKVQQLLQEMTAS
With `CC1(C)Cc2cc(NC(=O)c3cnn4cccnc34)c(N3CCN(Cc4ncc[nH]4)CC3)cc2O1` [Example 503, N-(6-(4-((1H-imidazol-2-yl)methyl)piperazin-1-yl)-2,2-dimethyl-2,3-dihydrobenzofuran-5-yl)pyrazolo[1,5-a]pyrimidine-3-carboxamide], the Ki stood at 4 nM.
The same measure for `CC1(C)Cc2cc(NC(=O)c3cnn4cccnc34)c(N3CCN(Cc4cnoc4)CC3)cc2O1` [Example 504, N-(6-(4-(isoxazol-4-ylmethyl)piperazin-1-yl)-2,2-dimethyl-2,3-dihydrobenzofuran-5-yl)pyrazolo[1,5-a]pyrimidine-3-carboxamide]: 3.1 nM.
For `CC1(C)Cc2cc(NC(=O)c3cnn4cccnc34)c(N3CCN(Cc4ccn[nH]4)CC3)cc2O1` [Example 505, N-(6-(4-((1H-pyrazol-5-yl)methyl)piperazin-1-yl)-2,2-dimethyl-2,3-dihydrobenzofuran-5-yl)pyrazolo[1,5-a]pyrimidine-3-carboxamide], the Ki was determined as 5.2 nM.
For `Cn1cncc1CN1CCN(c2cc3c(cc2NC(=O)c2cnn4cccnc24)CC(C)(C)O3)CC1` [Example 506, N-(2,2-dimethyl-6-(4-((1-methyl-1H-imidazol-5-yl)methyl)piperazin-1-yl)-2,3-dihydrobenzofuran-5-yl)pyrazolo[1,5-a]pyrimidine-3-carboxamide], the Ki was found to be 5.1 nM.
On to `Cc1nc(CN2CCN(c3cc4c(cc3NC(=O)c3cnn5cccnc35)CC(C)(C)O4)CC2)c[nH]1` [Example 507, N-(2,2-dimethyl-6-(4-((2-methyl-1H-imidazol-4-yl)methyl)piperazin-1-yl)-2,3-dihydrobenzofuran-5-yl)pyrazolo[1,5-a]pyrimidine-3-carboxamide], for which the Ki worked out at 3.2 nM.
The same measure for `CC(C)N1CCN(c2cc3c(cc2NC(=O)c2cnn4cccnc24)CC(C)(C)O3)CC1` [Example 508, N-(6-(4-isopropylpiperazin-1-yl)-2,2-dimethyl-2,3-dihydrobenzofuran-5-yl)pyrazolo[1,5-a]pyrimidine-3-carboxamide]: 43 nM.
As for `CC1(C)Cc2cc(NC(=O)c3cnn4cccnc34)c(N3CCN(Cc4c[nH]cn4)CC3)cc2O1` [Example 509, N-(6-(4-((1H-imidazol-4-yl)methyl)piperazin-1-yl)-2,2-dimethyl-2,3-dihydrobenzofuran-5-yl)pyrazolo[1,5-a]pyrimidine-3-carboxamide], the figure is 1.1 nM; as for `C[C@]1(O)COc2cc(N3CCN(CC(F)F)CC3)c(NC(=O)c3cnn4cccnc34)cc2C1` [Example 510, (R)—N-(7-(4-(2,2-difluoroethyl)piperazin-1-yl)-3-hydroxy-3-methylchroman-6-yl)pyrazolo[1,5-a]pyrimidine-3-carboxamide], 44 nM.
Turning to `CC1(C)Cc2cc(NC(=O)c3cnn4ccc(C[C@@H]5CNC(=O)C5)nc34)c(C3CC3)cc2O1` [Example 512, (S)—N-(6-Cyclopropyl-2,2-dimethyl-2,3-dihydrobenzofuran-5-yl)-5-((5-oxopyrrolidin-3-yl)methyl)pyrazolo[1,5-a]pyrimidine-3-carboxamide], the inhibition constant (Ki) is 150 nM.
For the molecule `CC1(C)Cc2cc(NC(=O)c3cnn4ccc(C[C@H]5CNC(=O)C5)nc34)c(C3CC3)cc2O1` [Example 513, (R)—N-(6-cyclopropyl-2,2-dimethyl-2,3-dihydrobenzofuran-5-yl)-5-((5-oxopyrrolidin-3-yl)methyl)pyrazolo[1,5-a]pyrimidine-3-carboxamide], the Ki worked out at 210 nM.
On to `CC1(C)Cc2cc(NC(=O)c3cnn4ccc(C[C@H]5CCNC5=O)nc34)c(C3CC3)cc2O1` [Example 514, (R)—N-(6-cyclopropyl-2,2-dimethyl-2,3-dihydrobenzofuran-5-yl)-5-((2-oxopyrrolidin-3-yl)methyl)pyrazolo[1,5-a]pyrimidine-3-carboxamide], for which the Ki was 810 nM.
With `CC1(C)Cc2cc(NC(=O)c3cnn4ccc(C[C@@H]5CCNC5=O)nc34)c(C3CC3)cc2O1` [Example 515, (S)—N-(6-cyclopropyl-2,2-dimethyl-2,3-dihydrobenzofuran-5-yl)-5-((2-oxopyrrolidin-3-yl)methyl)pyrazolo[1,5-a]pyrimidine-3-carboxamide], the inhibition constant Ki amounted to 420 nM.
As for `CP(C)(=O)c1ccc(NC(=O)c2cnn3cccnc23)c(N2CCOCC2)c1` [Example 518, N-(4-dimethylphosphoryl-2-morpholino-phenyl)pyrazolo[1,5-a]pyrimidine-3-carboxamide], the figure is 130 nM.
Take `C[C@@]1(CC#N)COc2cc(N3CCOCC3)c(NC(=O)c3cnn4cccnc34)cc2C1` [Example 519, N-[(3R)-3-(cyanomethyl)-3-methyl-7-morpholino-chroman-6-yl]pyrazolo[1,5-a]pyrimidine-3-carboxamide]: the Ki amounted to 39 nM.
In the case of `C[C@]1(CC#N)COc2cc(N3CCOCC3)c(NC(=O)c3cnn4cccnc34)cc2C1` [Example 520, N-[(3S)-3-(cyanomethyl)-3-methyl-7-morpholino-chroman-6-yl]pyrazolo[1,5-a]pyrimidine-3-carboxamide], the Ki worked out at 1.1 nM.
As for `CC(C)(O)[C@H](F)CN1Cc2cc(NC(=O)c3cnn4cccnc34)c(Cl)cc2C1=O` [Example 521, N-[6-chloro-2-[(2R)-2-fluoro-3-hydroxy-3-methyl-butyl]-1-oxo-isoindolin-5-yl]pyrazolo[1,5-a]pyrimidine-3-carboxamide], the inhibitory constant (Ki) is 4 nM.
On to `CC(C)(O)[C@@]1(C)Cc2cc(NC(=O)c3cnn4cccnc34)c(N3CCN(Cc4c[nH]cn4)CC3)cc2O1` [Example 522, N-[(2R)-2-(1-Hydroxy-1-methyl-ethyl)-6-[4-(1H-imidazol-4-ylmethyl)piperazin-1-yl]-2-methyl-3H-benzofuran-5-yl]pyrazolo[1,5-a]pyrimidine-3-carboxamide], for which the Ki stood at 3.4 nM.
On to `CC(C)(O)[C@]1(C)Cc2cc(NC(=O)c3cnn4cccnc34)c(N3CCN(Cc4c[nH]cn4)CC3)cc2O1` [Example 523, N-[(2S)-2-(1-hydroxy-1-methyl-ethyl)-6-[4-(1H-imidazol-4-ylmethyl)piperazin-1-yl]-2-methyl-3H-benzofuran-5-yl]pyrazolo[1,5-a]pyrimidine-3-carboxamide], for which the Ki came out at 4.4 nM.
The same measure for `CC(C)(O)[C@]1(C)Cc2cc(NC(=O)c3cnn4cccnc34)c(N3CCN(CC(N)=O)CC3)cc2O1` [Example 524, N-[(2S)-6-[4-(2-amino-2-oxo-ethyl)piperazin-1-yl]-2-(1-hydroxy-1-methyl-ethyl)-2-methyl-3H-benzofuran-5-yl]pyrazolo[1,5-a]pyrimidine-3-carboxamide]: 4.1 nM.
On to `CC(C)(O)[C@@]1(C)Cc2cc(NC(=O)c3cnn4cccnc34)c(N3CCN(CC(N)=O)CC3)cc2O1` [Example 525, N-[(2R)-6-[4-(2-amino-2-oxo-ethyl)piperazin-1-yl]-2-(1-hydroxy-1-methyl-ethyl)-2-methyl-3H-benzofuran-5-yl]pyrazolo[1,5-a]pyrimidine-3-carboxamide], for which the Ki turned out to be 4.2 nM.
As to `CC1(C)Cc2cc(NC(=O)c3cnn4cccnc34)c(N3CCC(C(N)=O)CC3)cc2O1` [Example 531, N-[6-(4-carbamoyl-1-piperidyl)-2,2-dimethyl-3H-benzofuran-5-yl]pyrazolo[1,5-a]pyrimidine-3-carboxamide], the Ki amounted to 3.2 nM.
Consider `CN(C)C1CCN(c2cc3c(cc2NC(=O)c2cnn4cccnc24)CC(C)(C)O3)CC1` [Example 532, N-[6-[4-(dimethylamino)-1-piperidyl]-2,2-dimethyl-3H-benzofuran-5-yl]pyrazolo[1,5-a]pyrimidine-3-carboxamide], for which the Ki was found to be 7.2 nM.
With `CC1(C)Cc2cc(NC(=O)c3cnn4cccnc34)c(N3CCNCC3)cc2O1` [Example 533, N-(2,2-dimethyl-6-piperazin-1-yl-3H-benzofuran-5-yl)pyrazolo[1,5-a]pyrimidine-3-carboxamide], the Ki came out at 13 nM.
The same measure for `CC1(C)Cc2cc(NC(=O)c3cnn4cccnc34)c(N3CCC(F)(C(N)=O)CC3)cc2O1` [Example 534, N-[6-(4-carbamoyl-4-fluoro-1-piperidyl)-2,2-dimethyl-3H-benzofuran-5-yl]pyrazolo[1,5-a]pyrimidine-3-carboxamide]: 2 nM; for `CC1(CC(N)=O)CCN(c2cc3c(cc2NC(=O)c2cnn4cccnc24)CC(C)(C)O3)CC1` [Example 535, N-[6-[4-(2-Amino-2-oxo-ethyl)-4-methyl-1-piperidyl]-2,2-dimethyl-3H-benzofuran-5-yl]pyrazolo[1,5-a]pyrimidine-3-carboxamide]: 3.1 nM; for `CC1(C)Cc2cc(NC(=O)c3cnn4cccnc34)c(N3CCC(O)(CC(N)=O)CC3)cc2O1` [Example 536, N-[6-[4-(2-amino-2-oxo-ethyl)-4-hydroxy-1-piperidyl]-2,2-dimethyl-3H-benzofuran-5-yl]pyrazolo[1,5-a]pyrimidine-3-carboxamide]: 3.1 nM.
On to `CN(C)c1cc2c(cc1NC(=O)c1cnn3cccnc13)CC(C)(C)O2` [Example 537, N-(6-(dimethylamino)-2,2-dimethyl-2,3-dihydrobenzofuran-5-yl)pyrazolo[1,5-a]pyrimidine-3-carboxamide], for which the Ki is 12 nM.
For `Cn1cnc(COc2cc3c(cc2NC(=O)c2cnn4cccnc24)CC(C)(C)O3)c1` [Example 538, N-(2,2-dimethyl-6-((1-methyl-1H-imidazol-4-yl)methoxy)-2,3-dihydrobenzofuran-5-yl)pyrazolo[1,5-a]pyrimidine-3-carboxamide], the Ki came to 220 nM.
As to `CC1(C)Cc2cc(NC(=O)c3cnn4cccnc34)c(OCc3c[nH]cn3)cc2O1` [Example 539, N-[6-(1H-Imidazol-4-ylmethoxy)-2,2-dimethyl-3H-benzofuran-5-yl]pyrazolo[1,5-a]pyrimidine-3-carboxamide], the Ki is 33 nM.

For orientation: Ki means the equilibrium dissociation constant of an inhibitor or competing ligand from its target.
